Here are results for 7 compounds from patent US12728139B2, “Methods of preparing purified atomic quantum clusters” (NANOGAP SUB-NM-POWDER, S.A., priority 2018, dated 2026).

For one assay, the system named is A549 proliferating cells. Briefly: STORM super-resolution imaging of chromatin organization. It counts as cell-based, human. The conditions noted are these: Ag3-AQCs 55.61 ng/mL or AgNO3 5 μM, 30 min.
The test system of assay [1] is A549 orthotopic lung cancer. Briefly: Orthotopic lung cancer model. The conditions noted are these: CDDP 4 mg/kg intravenously, up to 37 days.
Procedure: (a) Tumour growth measured in vivo by luminescence (IVIS® Spectrum).
A suspension of 1×10^6 non-small cell lung carcinoma luciferase expressing cells (A549 Luc-C8 Bioware® cell line) in PBS (50 μL) was injected through the intercostal space into the left lung of athymic nude mice. During this procedure, mice were anaesthetized using 4% isoflurane inhalation. To follow tumour growth, luciferin was injected into the intraperitoneal cavity at a dose of 150 mg/kg body weight approximately 5 minutes before imaging. Luciferase bioluminescence was imaged under vaporized isofluran anaesthesia using an IVIS® Living Image® System (Caliper Life Sciences, Hopkinton, MA, USA) that allowed monitoring of both the primary tumour growth and cancer cell dissemination in a semi quantitative fashion. After in vivo imaging for several days (up to 37 days), the mice were sacrificed, and protein extracts were obtained from different organs to quantify luciferase activity.
The next assay concerns A549 Luc-C8 cells. Briefly: Luminescent cell viability assay. The format is cell-based, human. Conditions: 24 hours. Here is the method: Data represent mean±SD of 2 independent experiments with 3 replicas per experiment. Mann Whitney test ((*) p<0.01).
After that, treatments were removed and 20 μL of lysis buffer (Promega) added to wells and incubated for 30 minutes, shacking. Lysates were then transferred to 1.5 mL tubes and centrifuged for 15 minutes at high speed.

A further assay has as its target T1, single nucleosomes (Homo sapiens, UniProt P62805+P68431+Q16778+Q7L7L0).
T1 construct: purchased New England Biolabs, Ipswich, USA
Briefly: Single-nucleosome destabilization, gel shift assay. The format is biochemical. The conditions noted are these: etoposide 60 μM or doxorubicin 20 μM 4 hours; Ag3-AQCs 83 ng/mL 30 minutes.

The subject of a further assay is octamer. Conditions: 25° C., ITC and fluorescence; cited from earlier work.
A further assay concerns A549 cells. In words: Quantification of platinum bound to DNA (ICP-MS) in A549 cells. It counts as cell-based, human. Conditions: proliferating A549 cells, CDDP 50 μM. As to the method: DNA-bound platinum was assessed as previously described in Comenge et al. PLoS One 2012, 7: e47562. Briefly, 5×10^5 A549, MCF7 or U87-luc cells were seeded in 60 mm diameter plates. […] After the treatment, the cells were washed twice with PBS, trypsinised and centrifuged. The supernatants were removed, and the cell pellets were stored at −20° C. overnight. […] After 24 hours, the animals were sacrificed, and the organs were removed. Small pieces (1-2 mm^3) of tumour (lung) and other organs (heart, liver, kidney, spleen, brain and bone marrow) were separated using a scalpel. From this point, the steps for DNA extraction are common to cells and tissue samples. After freezing overnight, cell or tissue pellets were suspended in 300 μL of lysis buffer (150 mM Tris pH 8; 100 mM EDTA pH 8; 100 mM NaCl; 0.5% SDS) and 10 μL of Proteinase K (20 μg/μL). […] The DNA concentration was determined using a NanoDrop 2000 spectrophotometer (Thermofisher, Spain). […] Finally, the amount of platinum was determined by mass spectrometry using an ICP-MS BRUCKER 820-MS with a low-flow glass Micromist nebulizer and a double-pass spray chamber with a Peltier cooling (3° C.) and quartz torch (Bruker Corp., Billerica, MA, USA).

Procedure for A549 proliferating cells: 1.5×10^4 A549 cells were plated on 8-well Lab-tek cover glass chamber (Nunc) and 24 hours later cells were synchronized in S phase by adding 0.8 mM hydroxyurea (H-8627, Sigma) to the culture medium. […] The medium was removed and replaced with complete medium containing EdU (20 μM) for 2 hours. Cells were then fixed and permeabilized with Methanol-Acetone (1:1) solution at 20° C. for 10 minutes and blocked (3% BSA+0.01% Triton X-100) for 1 hour at RT. Finally, cells were washed three times with PBS and stained with Alexa Fluor 647 following the instructions provided by the manufacturer (Click-iT® EdU Alexa Fluor®488 Imaging Kit, Thermo Fisher Scientific).
The chromatin was imaged using a commercial microscope system from Nikon Instruments (NSTORM). […]
STORM images were analysed and rendered as previously described in Bates et al. 2007. […]
Since the labelling density of the EdU was very high, all of the images were roughly normalized to the same number of localizations per μm^2 of the nucleus, by varying the number of frames used in the final reconstructed image. The percentage of non-zero pixels of the reconstructed images was then calculated in ImageJ, and the percentage of nuclear area covered by EdU also calculated. The density of chromatin per μm^2 was extracted by dividing the number of localizations (same for each recorded nucleus) over the chromatin-covered area.
Procedure for single nucleosomes: From each reaction, half of the sample was electrophoresed under non-denaturing conditions, and the gel was stained with ethidium bromide (left, upper panel) and silver (left, lower panel). The remaining portion of the sample was analysed to check that equal amounts of histones were loaded in all cases (right panel). The position of unbound DNA, assembled nucleosomes and histones are indicated. (b) Nucleosomes were incubated with etoposide or doxorubicin as in (a) or the indicated Ag3-AQC dilutions (initial concentration, AQCs 1:10=83 ng/mL). Samples were analysed by native polyacrylamide electrophoresis, and the gel was stained first with ethidium bromide (top) and subsequently with silver (bottom) to visualize histones. This image is representative of two independent experiments.
Single nucleosome preparations were obtained using the Epimark Nucleosome Assembly Kit (New England Biolabs, Ipswich, USA) following the dilution assembly protocol from the manufacturer.
For the gel shift assay, 5% non-denaturing polyacrylamide gels were prepared using TBE buffer. After a 1 hour preliminary run at 100 V, the reactions containing nucleosomes were mixed with DNA loading buffer, and the electrophoresis was performed at 100 V for 2 h. Gels were stained with ethidium bromide to visualize DNA, and the signal was captured using the Gel Doc XR system (Bio-Rad). […]

Consider `O=[N+]([O-])[O-].[Ag+]` [AgNO3, Silver nitrate], for which the “Chromatin compaction (STORM images)” value with A549 proliferating cells was “did not affect chromatin compaction”.
In the case of `[NH2][Pt]([NH2])([Cl])[Cl]` [CDDP, Cisplatin], the “Tumour growth in vivo (bioluminescence)” value in assay [1] was “significantly reduced the growth of tumours”. In addition, in the assay with A549 Luc-C8 cells, the IC5 turned out to be 5 µM, the 25% effect concentration (IC25) is 10 µM, the IC50 was 50 µM and the concentration for an effect of 75% (IC75) was found to be 100 µM.
With `COc1cc([C@@H]2c3cc4c(cc3[C@@H](O[C@@H]3O[C@@H]5CO[C@@H](C)O[C@H]5[C@H](O)[C@H]3O)[C@H]3COC(=O)[C@H]23)OCO4)cc(OC)c1O` [etoposide], the “Dissociation of single nucleosomes” value on single nucleosomes is on record as “has no effect”.
Turning to `O=C1[O][Pt]2([NH][C@@H]3CCCC[C@H]3[NH]2)[O]C1=O` [OXA, Oxaliplatin], in the assay with A549 Luc-C8 cells, the IC5 is 2.5 µM; the 25% effect concentration (IC25) was found to be 12.5 µM; the midpoint of inhibition, the IC50, lay at 50 µM; the IC75 turned out to be 200 µM.
`CC[N+](C)(CC)CCC[n+]1c(-c2ccccc2)c2cc(N)ccc2c2ccc(N)cc21.[I-].[I-]` [IP, Propidium iodide]: in the assay on octamer, the “Formation constant of complex with octamer” value is 140000 M⁻¹.
Turning to `N.N.O=C([O-])C1(C(=O)[O-])CCC1.[Pt+2]` [CBDCA, Carboplatin], in the assay on A549 Luc-C8 cells, the IC5 was determined as 0.25 µM, the IC25 came to 0.5 µM, the IC50 stood at 1000 µM and the IC75 is 2000 µM.
Turning to `COc1cccc2c1C(=O)c1c(O)c3c(c(O)c1C2=O)C[C@@](O)(C(=O)CO)C[C@@H]3O[C@H]1C[C@H](N)[C@H](O)[C@H](C)O1` [DOX, Doxorubicin], the “Dissociation of single nucleosomes” value at single nucleosomes is on record as “dissociated nucleosomes”. Also, the “Increase of amount of CDDP bound to DNA on co-administration with CDDP” value in the assay on A549 cells is on record as “did not increase CDDP binding to DNA”.
